# Source: patent US20240374605A1, “METHODS OF TREATING CANCER” (Foghorn Therapeutics Inc., priority 2021, published 2024)
# Assays:
# [1] = test system: U937; experiment: 3-day growth inhibition (Cell-titer glow), U937; type: cell-based; details: Homo sapiens, U-937, 72 h; U937, Histiocytic lymphoma, 3 days; read-out: Absolute IC50
# [2] = test system: uveal melanoma, prostate cancer, acute leukemia and histocytic lymphoma cell lines; experiment: 3-day growth inhibition (Cell-titer glow), all cell lines of Example 17; type: cell-based
# [3] = test system: EOL1; experiment: 3-day growth inhibition (Cell-titer glow), EOL1; type: cell-based; details: Homo sapiens, 72 h; EOL1, Acute myeloid leukemia, 3 days; read-out: Absolute IC50
# [4] = test system: MP41; experiment: 3-day growth inhibition (Cell-titer glow), MP41; type: cell-based; details: 72 h; MP41, Uveal melanoma, 3 days; read-out: Absolute IC50
# [5] = test system: 92-1 uveal melanoma cells; experiment: Uveal melanoma tumor growth inhibition in vivo, subcutaneous xenograft; set-up: species or system Nude mice
# [6] = test system: 92-1; experiment: 3-day growth inhibition (Cell-titer glow), 92-1; type: cell-based; details: 72 h; 92-1, Uveal melanoma, 3 days; read-out: Absolute IC50
# [7] = test system: 22RV1; experiment: 3-day growth inhibition (Cell-titer glow), 22RV1; type: cell-based; details: Homo sapiens, 72 h; 22RV1, Prostate, 3 days; read-out: Absolute IC50
# [8] = test system: MP46; experiment: 3-day growth inhibition (Cell-titer glow), MP46; type: cell-based; details: 72 h; MP46, Uveal melanoma, 3 days; read-out: Absolute IC50
# [9] = Body weight and tolerability in tumor-bearing mice; type: in vivo; details: all treatments, once daily oral gavage, 3 weeks
# [10] = test system: THP1; experiment: 3-day growth inhibition (Cell-titer glow), THP1; type: cell-based; details: Homo sapiens, THP-1, 72 h; THP1, Acute monocytic leukemia, 3 days; read-out: Absolute IC50
# [11] = test system: MP38; experiment: 3-day growth inhibition (Cell-titer glow), MP38; type: cell-based; details: 72 h; MP38, Uveal melanoma, 3 days; read-out: Absolute IC50
# [12] = test system: MEL202; experiment: 3-day growth inhibition (Cell-titer glow), MEL202; type: cell-based; details: 72 h; MEL202, Uveal melanoma, 3 days; read-out: Absolute IC50
# [13] = test system: PKC inhibitor (PKCi)-resistant MP41 uveal melanoma cells; experiment: 7-day growth inhibition assay, PKC inhibitor-resistant cells; type: cell-based
# [14] = target: T1, BRG1 (Homo sapiens, UniProt P51532); experiment: ATPase catalytic activity of BRG-1, in vitro biochemical assay using ADP-Glo; details: 30 nM BRG-1, 400 μM ATP, 1 hour room temperature; read-out: IP50 against BRG1
# T1 construct: made in house; host or cells: High Five insect cells
# [15] = test system: Uveal melanoma cell lines, 92-1 or MP41; experiment: 3-day growth inhibition compared with clinical PKC and MEK inhibitors (Cell-titer glow); type: cell-based; details: 0 to 10 μM, 3 days
# [16] = test system: parental MP41 cells; experiment: 7-day growth inhibition assay, parental cells; details: parental MP41, 7-day; FIG. 10
# [17] = test system: Uveal melanoma cell lines (92-1, MP41, MP38, MP46) and non-small cell lung cancer cells (NCIH1299); experiment: 3-day growth inhibition (Cell-titer glow), Example 12; type: cell-based; details: 0 to 10 μM, 3 days; FIG. 6
# [18] = test system: uveal melanoma, hematologic cancer, prostate cancer, breast cancer, and Ewing's sarcoma cell lines; details: breast cancer and Ewing's sarcoma lines vs the other tested cell lines, 0 to 10 μM, FIG. 4
# T1 sequence (P51532 whole entry): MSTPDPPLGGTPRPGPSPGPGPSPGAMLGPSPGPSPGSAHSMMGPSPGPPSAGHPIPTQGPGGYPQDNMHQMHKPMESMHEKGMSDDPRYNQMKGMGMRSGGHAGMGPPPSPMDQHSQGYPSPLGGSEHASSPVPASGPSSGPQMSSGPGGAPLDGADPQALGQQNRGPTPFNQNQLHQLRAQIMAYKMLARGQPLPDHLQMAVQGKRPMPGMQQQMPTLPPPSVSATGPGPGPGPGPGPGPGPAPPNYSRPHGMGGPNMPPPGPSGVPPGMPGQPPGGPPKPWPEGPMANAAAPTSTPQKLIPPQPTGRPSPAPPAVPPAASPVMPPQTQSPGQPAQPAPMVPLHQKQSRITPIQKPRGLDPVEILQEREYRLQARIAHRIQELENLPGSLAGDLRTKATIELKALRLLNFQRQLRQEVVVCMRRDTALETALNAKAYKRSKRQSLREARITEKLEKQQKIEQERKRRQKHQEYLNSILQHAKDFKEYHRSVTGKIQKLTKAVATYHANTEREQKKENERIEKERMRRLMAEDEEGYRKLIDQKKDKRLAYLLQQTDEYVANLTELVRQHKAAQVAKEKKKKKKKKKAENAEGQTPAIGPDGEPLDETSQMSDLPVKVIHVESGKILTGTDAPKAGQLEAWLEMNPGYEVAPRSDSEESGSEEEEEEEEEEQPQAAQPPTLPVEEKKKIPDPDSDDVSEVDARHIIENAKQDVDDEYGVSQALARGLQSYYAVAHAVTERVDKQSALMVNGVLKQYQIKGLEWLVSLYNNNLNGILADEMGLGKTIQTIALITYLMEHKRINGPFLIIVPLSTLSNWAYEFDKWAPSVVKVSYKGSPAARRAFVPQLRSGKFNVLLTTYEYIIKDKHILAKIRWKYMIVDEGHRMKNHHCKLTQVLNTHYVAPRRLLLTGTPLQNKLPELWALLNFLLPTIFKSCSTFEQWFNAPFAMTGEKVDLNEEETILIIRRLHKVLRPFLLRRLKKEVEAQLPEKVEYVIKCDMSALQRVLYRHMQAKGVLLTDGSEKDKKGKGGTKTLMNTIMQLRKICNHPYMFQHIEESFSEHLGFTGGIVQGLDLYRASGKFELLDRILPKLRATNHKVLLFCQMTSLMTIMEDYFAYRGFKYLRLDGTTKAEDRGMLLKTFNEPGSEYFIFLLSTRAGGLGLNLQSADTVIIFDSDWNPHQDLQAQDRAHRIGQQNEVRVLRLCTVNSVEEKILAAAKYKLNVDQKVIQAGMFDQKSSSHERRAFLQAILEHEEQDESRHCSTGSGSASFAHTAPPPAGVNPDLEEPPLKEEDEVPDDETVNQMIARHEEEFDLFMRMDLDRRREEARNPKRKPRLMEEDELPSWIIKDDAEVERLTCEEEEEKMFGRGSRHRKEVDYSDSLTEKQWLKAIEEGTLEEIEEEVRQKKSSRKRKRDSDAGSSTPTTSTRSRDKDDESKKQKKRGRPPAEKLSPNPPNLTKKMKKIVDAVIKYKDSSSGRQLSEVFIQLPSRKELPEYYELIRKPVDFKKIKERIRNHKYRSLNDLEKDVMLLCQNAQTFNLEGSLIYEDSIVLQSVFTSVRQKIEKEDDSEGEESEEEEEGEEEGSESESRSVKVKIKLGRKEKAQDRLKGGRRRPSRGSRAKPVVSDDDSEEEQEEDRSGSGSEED
smiles,measurement,setting,value
"COC[C@H](NC(=O)c1ccn(S(C)(=O)=O)c1)C(=O)Nc1nc(-c2cccc(N3C[C@@H](C)O[C@@H](C)C3)n2)cs1 [N—((S)-1-((4-(6-(cis-2,6-dimethylmorpholino)pyridin-2-yl)thiazol-2-yl)amino)-3-methoxy-1-oxopropan-2-yl)-1-(methylsulfonyl)-1H-pyrrole-3-carboxamide]",IC50,[1],14.8 nM
same,IC50,"[2]; 72 h, 3 days of compound treatment, read-out: absolute IC50 values, all cell lines tested",< 350 nM
same,growth inhibition,"[2]; 3 days, 0 to 2 μM (uveal melanoma lines) or 0 to 1 μM (other lines), FIG. 14",potent growth inhibition
same,IC50,[3],75.5 nM
same,IC50,[4],11.8 nM
same,tumor response at the highest dose,[5]; […] once daily oral gavage,tumor regression
same,tumor growth inhibition,"[5]; once daily oral gavage, increasing doses, 3 weeks",tumor growth inhibition in a dose-dependent manner
same,IC50,[6],0.3 nM
same,IC50,[7],29.7 nM
same,IC50,[8],113 nM
same,tolerability,[9],well tolerated
same,IC50,[10],345 nM
same,IC50,[11],31.5 nM
same,IC50,[12],62.3 nM
"CC1(N)CCN(c2cccnc2NC(=O)c2nc(-c3ncccc3C(F)(F)F)cnc2N)CC1 [LXS196, reference compound]",sensitivity of PKCi-resistant cells relative to parental MP41 cells,"[13]; 7-day, FIG. 9 and FIG. 10",could tolerate growth at higher concentrations
CSOC[C@H](NC(=O)c1ccc(N)cc1)C(=O)Nc1nc(-c2cccc(-c3ccncc3)c2)cs1 [Compound A],IC50,[14],19.3 nM
same,growth inhibition compared with the clinical PKC (LXS196) and MEK (Selumetinib) inhibitors,[15],comparable growth inhibition
same,onset of growth inhibition compared with the clinical PKC and MEK inhibitors,[15],faster onset of inhibition
CSCC[C@H](NC(=O)c1ccn(S(C)(=O)=O)c1)C(=O)Nc1nc(-c2cccc(-c3ccncc3)c2)cs1 [Compound B],growth inhibition,[16],strong growth inhibition
same,growth inhibition,[17],potent growth inhibition
same,growth inhibition,"[13]; PKCi-resistant MP41, 7-day, FIG. 10",strong growth inhibition
same,growth inhibition compared with the clinical PKC (LXS196) and MEK (Selumetinib) inhibitors,[15],more potent effects on growth inhibition
same,onset of growth inhibition compared with the clinical PKC and MEK inhibitors,[15],faster onset of growth inhibition
same,sensitivity of cell lines to BRG1/BRM inhibition,[18],more sensitive
